Reference: ChEMBL document CHEMBL2321774, “The C-terminus of Botulinum A Protease Has Profound and Unanticipated Kinetic Consequences Upon the Catalytic Cleft” (ACS Med Chem Lett, 2013)

Target: Botulinum neurotoxin type A (Clostridium botulinum, UniProt P0DPI0)
Sequence (P0DPI0 2-448 limits assumed): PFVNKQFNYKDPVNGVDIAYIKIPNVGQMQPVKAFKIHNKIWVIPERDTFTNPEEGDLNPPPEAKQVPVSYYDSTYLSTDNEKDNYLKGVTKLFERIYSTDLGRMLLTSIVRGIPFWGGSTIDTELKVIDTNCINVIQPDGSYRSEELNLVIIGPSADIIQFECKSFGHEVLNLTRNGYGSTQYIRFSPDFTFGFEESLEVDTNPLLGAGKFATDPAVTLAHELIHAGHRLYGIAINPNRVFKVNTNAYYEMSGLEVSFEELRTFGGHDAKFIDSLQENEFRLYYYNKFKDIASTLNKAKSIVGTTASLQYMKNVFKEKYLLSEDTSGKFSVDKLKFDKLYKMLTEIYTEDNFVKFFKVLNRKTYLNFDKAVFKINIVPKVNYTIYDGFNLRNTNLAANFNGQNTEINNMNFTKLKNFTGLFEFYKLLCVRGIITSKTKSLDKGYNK

Work on `COC(=O)c1ccc(O)c2nc3c(C=O)c(O)cc(O)c3nc12` [LOMOFUNGIN] yielded a Ki of 25 µM.
